Here are results for seven compounds from patent publication US20230203031A1, “COMPOUNDS USEFUL FOR INHIBITING CDK7” (Eli Lilly and Company, priority 2020, published 2023).

As usually defined, the IC50 is the point on the concentration scale where inhibition reaches its midpoint.

Each structure is given as a SMILES string. Like-named read-outs stand apart in the source and are kept apart here.

For one experiment, the target named is CDK7/CyclinH/Mat1 (Homo sapiens, UniProt P50613). Kind of experiment: Biochemical assay for inhibition of CDK7/CyclinH/MAT1 (radiolabel filter binding). The conditions noted are these: 100 µM ATP.
Chain of CDK7/CyclinH/Mat1 (P50613 whole entry, the tested form may be a part): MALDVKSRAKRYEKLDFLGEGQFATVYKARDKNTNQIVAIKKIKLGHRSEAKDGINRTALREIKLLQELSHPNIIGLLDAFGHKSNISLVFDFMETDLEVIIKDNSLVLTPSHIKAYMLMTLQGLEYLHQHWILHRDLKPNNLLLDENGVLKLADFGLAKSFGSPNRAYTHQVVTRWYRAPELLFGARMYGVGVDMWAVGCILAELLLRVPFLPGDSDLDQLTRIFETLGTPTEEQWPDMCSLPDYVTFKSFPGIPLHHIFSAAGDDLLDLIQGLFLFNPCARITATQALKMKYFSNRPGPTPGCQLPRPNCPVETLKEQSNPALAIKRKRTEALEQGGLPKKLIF
Chain of CDK7/CyclinH/Mat1 (P51946 whole entry partner, the tested form may be a part): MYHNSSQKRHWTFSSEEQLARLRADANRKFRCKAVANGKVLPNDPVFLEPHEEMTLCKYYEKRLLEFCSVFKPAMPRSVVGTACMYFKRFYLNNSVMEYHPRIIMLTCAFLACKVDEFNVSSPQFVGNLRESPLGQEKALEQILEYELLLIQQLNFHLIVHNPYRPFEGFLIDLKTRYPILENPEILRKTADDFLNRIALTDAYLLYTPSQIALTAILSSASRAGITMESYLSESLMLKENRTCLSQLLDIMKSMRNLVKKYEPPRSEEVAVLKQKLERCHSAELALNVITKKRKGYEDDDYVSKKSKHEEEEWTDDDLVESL
Chain of CDK7/CyclinH/Mat1 (P51948 whole entry partner, the tested form may be a part): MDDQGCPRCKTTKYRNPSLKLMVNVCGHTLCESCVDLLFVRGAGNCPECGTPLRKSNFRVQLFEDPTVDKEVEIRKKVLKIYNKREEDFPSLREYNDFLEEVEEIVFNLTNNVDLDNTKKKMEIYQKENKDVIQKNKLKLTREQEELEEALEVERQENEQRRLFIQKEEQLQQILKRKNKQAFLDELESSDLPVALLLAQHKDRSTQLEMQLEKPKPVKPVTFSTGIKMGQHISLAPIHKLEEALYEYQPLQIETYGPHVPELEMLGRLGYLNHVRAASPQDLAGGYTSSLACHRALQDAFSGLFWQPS
In experiment [1] the test system is pCTD Ser5 in HCT116 cells. Kind of experiment: Phospho-carboxyl terminal domain (Ser5) p-CTD (S5) cell based Acumen assay. The conditions noted are these: read-out: Relative IC50 for pCTD Ser5. The procedure:
HCT116 cells (ATCC CCL-247) are cultured in McCoy’s 5A Medium Modified media supplemented with 10% FBS, 1% NaPyr, and 1% Pen/Strep and plated (prior to becoming 70% confluent) in 96-well flat-bottom plates at a density of 5,000 cells per well in 100 µL volume. The cells are incubated overnight in a cell culture incubator (5% CO2, 95% Relative Humidity (RH), and 37° C.) and allowed to attach to the plate. The following morning, the cells are dosed with compounds. Compound inhibitors are solubilized at 60 µM in culture medium containing 0.6% DMSO. Subsequently compound serial dilutions (1:3) are prepared over a 60 µM to 0.003 µM range. Cells are dosed with the addition of 50 µL from serial dilution plate to assay plate containing cell attached with 100 µL of media producing a final DMSO concentration of 0.2% with a final compound concentration dose range between 20 and 0.001 µM. For max point media containing 0.2% of DMSO is used and for min point, a reference compound diluted at 0.83 µM final concentration in the growth media containing 0.2% DMSO is used. After dosing with compounds, the cell plates are incubated at 37° C. and 5% CO2 for 4 hours. Growth media is removed carefully and the cells are fixed by adding 100 µL of 4% para-formaldehyde for 30 minutes at RT. Cell are washed once with PBS and incubated with 100 µL of cold MeOH for 15 minutes at RT for cell permeation. Again cells are washed twice with PBS (100 µL/each) and blocked with 100 µL/well of 1% BSA/PBS for 30 min at RT. 50 µL of 1:1000 primary antibody (Anti-phosphoCTD Ser5 Bethyl Laboratories cat# A300-655A) dilution in 1% BSA/PBS are added per well, the plates are sealed and incubated overnight at 4° C.
The following day cells are washed three times with PBS (100 µL/well) and incubated with 50 µL/well of secondary antibody (1:2000 dilution, Goat anti-rabbit IgM ALEXA FLUOR™ 488) in PBS for 1 hourr at room temperature. After washing 3× with PBS (100 µL/well), 100 µL, of 50 µg/mL RNAase (Sigma) and 1:1000 propidium iodide dilution in PBS are added per well. Plates are sealed and incubated for 1 hour at RT on the bench (preserved from light). Plates are analyzed on Acumen on FL2 (mean intensity), and FL3 (total intensity). Fluorescence plates are scanned with ACUMEN EXPLORER™ [Laser-scanning fluorescence microplate cytometer manufactured by TTP LABTECH LTD] to measure anti-phospho-carboxyl terminal domain at Serine 5 (pCTD). Image analysis is based on cellular fluorescent signals for identifying positive cells. pCTD (S5) positive cells are identified by mean intensity at 500-530 above the threshold. Total intensity at 575-640 from propidium iodide/DNA is used to identify individual cells. Assay output is % pCTD positive cells. The IC50 is determined by curve fitting to a four parameter logistic for each output using GENE DATA™.

The subject of the next experiment is HCC1806. Briefly: Cell proliferation assay (CELL TITER GLO), HCC1806. The conditions noted are these: Homo sapiens, 144 h; HCC1806 breast cancer, six days after compound addition. Format: cell-based. On the procedure:
(§1) Cell lines are plated at the density 5000 cells per well in 100 µL per well growth medium into a white 96-well cell culture plate. See Table 1 for cell line and culture medium information. Plates are incubated at 37° C. and 5% CO2. The following day, a serial dilution of the test compound is prepared by diluting the compound 1:3 in DMSO for 10 points. The DMSO plate is 1000X the final concentration. In addition to the CDK7 inhibitor, a DMSO alone column is included as a maximum growth control and 10 µM staurosporine final column is included as a maximum growth inhibition control. A 10X dilution plate is then prepared by adding 2 µL per well from the 1000X DMSO plate to 198 µL per well of OMEM (Life Technologies, Carlsbad, CA, cat#31985-070). Cells are treated with indicated compound by adding 11 µL per well from the 10X OMEM plate to the cell plate containing 100 µL per well growth medium for a 1X final concentration. Plates are placed back into the incubator at 37° C. and 5% CO2. Six or seven days after compound addition, for HCC1806 or A2780 cells respectively, plates are removed from the incubator and allowed to equilibrate to RT. […] After 15 minute incubation on shaker, luminescence is read, 1 second per well, using a Wallac VICTOR2™. […]

The test system of another experiment is A2780. Kind of experiment: Cell proliferation assay (CELL TITER GLO), A2780. Format: cell-based. The settings on record: Homo sapiens, 168 h; A2780 ovarian cancer, seven days after compound addition. The procedure:
as §1
Background: Cellular ATP, detected with luciferase, serves as a proxy for viable cell number.

The subject of experiment [2] is HCC1806 xenograft tumor model. Briefly: Xenograft tumor model. In kind it is in vivo, female athymic nude mice. The conditions noted are these: QDx28, HCC1806 (KMT2C). On the procedure:
The purpose of this assay is to measure reduction in tumor volume in response to the compound of Example 1. To evaluate in vivo efficacy of a test compound, multiple xenograft tumor models are utilized. Briefly, 2.5 × 10^6 tumor cells in a 1:1 MATRIGEL® mix (0.2 mL total volume) are injected subcutaneously into the female athymic nude mice (Envigo, Harlan Laboratories). After allowing tumors to reach a desired size of ~300-500 mm^3, animals are randomized into groups of 5 for efficacy studies. Test compound is administered via oral gavage (PO) at indicated doses and regimens. Tumor growth and body weight are monitored over time to evaluate efficacy and signs of toxicity.
Test compound is formulated in 1% hydroxyethylcellulose, 0.25% polysorbate 80, 0.05% antifoam in purified water (HEC) and administered by oral gavage (final volume 0.2 mL) at the doses indicated in Table 2. A test compound is formulated on a weekly basis and stored at 4° C. Vehicles are administered to the control groups according the schedules used above using a volume of 0.2 mL per dose. Mice are dosed via oral gavage and tumor samples are collected at termination and stored at -80° C.
Tumor size and body weight are recorded and analyzed bi-weekly.
Delta T/C% is calculated when the endpoint tumor volume in a treated group is at or above baseline tumor volume. The formula is 100×(T-T0)/(C-C0). […]

Setting [3] is: IC50 after 3 hours of preincubation of CDK7 enzyme, 3 hours preincubation.
The mark [4] stands for this setting: IC50 in CDK7 without preincubation, no preincubation of enzyme with compound.

Description for CDK7/CyclinH/Mat1: The purpose of these assays is to measure the ability of the compounds described herein to inhibit CDK7/CyclinH/Mat1 complex kinase activity. […] All ligands, solvents, and reagents employed in the following assays are readily available from commercial sources, or can be readily synthesized by one skilled in the art. The IC50 determination for CDK7 and CDK9 are determined as follows.
The IC50 activity of the compounds described herein is determined using radiolabel filter binding (FB) assays using the purified human recombinant enzyme in the presence of ATP//[^33P]ATP and peptide substrate. The ATP concentrations chosen are at or near the enzyme Km for ATP.
Reactions are carried out in 96 well polystyrene plates in a final volume of 25 µL per well. 5 µL of test compound in 20% DMSO, 10 µL of substrate solution (ATP/33PATP and CDK7/9 tide), and 10 µL of enzyme solution are mixed. […] The enzyme solution is prepared for a final concentration of 1 nM CDK7/CyclinH/Mat1 enzyme [Proqinase 0366-0360-4 Lot 002)] diluted in kinase buffer. Test compounds are serially diluted 1:3 in 20% DMSO to create a 10 point curve at a starting concentration of 20 µM. 20% DMSO buffer alone without test compound is employed as high control (full activity in the absence of any inhibitor), 500 mM EDTA is used to determine the level of background in the absence of enzyme activity (low control). After mixing 5 µL of compounds with 10 µL of enzyme solution, the plate is incubated for 0 or 180 minutes at 22° C. After that time, the reaction is initiated by the addition of 10 µL substrate solution and incubated for 50 minutes at 22° C. The reaction is terminated by the addition of 80 µL of cold 10% orthophosphoric solution. The Filter Plates (opaque, non-sterile filter plates) are prewashed with 10 µL of 10% orthophosphoric solution to each well. 100 µL of the mixture are transferred to a phosphocellulose filter and incubated at room temperature for 45 minutes. Filter plates are washed with 200 µL 0.5 % orthophosphoric acid 3 times on a filter plate processor. Incorporation of 33Pi (counting of “cpm”) is determined by adding 80 µL of MICROSCINT™ to each well and read on a counter after an hour. Data is processed through a [sequence] [sequence]Ⓡ tool. Data are analyzed using a 4-parameter nonlinear logistic equation (four-parameter logistic concentration-response curve): Y = bot + [(top-bot)/1+(x/ IC50)slope] where Y = % inhibition, X = concentration yielding y% inhibition, Bottom = minimum value of y attained by curve, Top = maximum value of y attained by curve and Slope = steepness of curve at IC50. %Inh = [(median Max- x/ median Max - median Min)] . 100 IC50: concentration of compound that reduces a given response (ligand binding, enzyme response) by 50%.

As for `[2H]CC([2H])(C)c1cnc2c(NC3CCN(C[C@@H]4CN(C(=O)C=C)CCO4)CC3)cc(C(F)(F)F)cn12` (mixture of isomers) [Example 7, 1-[(2R)-2-[[4-[[3-[rac-1,2-dideuterio-1-methyl-ethyl]-6-(trifluoromethyl)imidazo[1,2-a]pyridin-8-yl]amino]-1-piperidyl]methyl]morpholin-4-yl]prop-2-en-1-one], the IC50 at CDK7/CyclinH/Mat1 (setting [3]) stood at 0.00625 µM; on CDK7/CyclinH/Mat1 (setting [4]), 0.0845 µM; in experiment [1] (Homo sapiens, HCT-116, 4 h), 0.0717 µM.
Turning to `C=CC(=O)N1CCO[C@H](CN2CCC(Nc3cc(C(C)F)cn4c(C(C)C)cnc34)CC2)C1` (single isomer, unassigned) [Example 1], the IC50 in the experiment with HCC1806 was 0.0195 µM; in the experiment with A2780 it was 0.0228 µM; on CDK7/CyclinH/Mat1 (setting [3]), 0.0143 µM; on CDK7/CyclinH/Mat1 (setting [4]), 0.123 µM; in experiment [1] (Homo sapiens, HCT-116, 4 h) it was 0.161 µM. Moreover, the “Avg. ΔT/C” value in experiment [2] (10 mg/kg PO) is 16.5%; in experiment [2] (20 mg/kg PO), -38.0%.
As for `C=CC(=O)N1CCO[C@H](CN2CCC(Nc3cc(C(C)F)cn4c(C(C)C)cnc34)CC2)C1` (single isomer, unassigned) [Example 2], the IC50 on CDK7/CyclinH/Mat1 (setting [3]) was 0.0266 µM; at CDK7/CyclinH/Mat1 (setting [4]), 0.256 µM; in experiment [1] (4 hours) it was 0.162 µM.
`C=CC(=O)N1CCO[C@H](CN2CCC(Nc3cc(C(C)O)cn4c(C(C)C)cnc34)CC2)C1` (single isomer, unassigned) [Example 4]: the IC50 amounted to 0.0143 µM on CDK7/CyclinH/Mat1 (setting [3]), 0.155 µM at CDK7/CyclinH/Mat1 (setting [4]) and 0.0551 µM in experiment [1] (4 hours).
In the case of `C=CC(=O)N1CCO[C@H](CN2CCC(Nc3cc(C(C)O)cn4c(C(C)C)cnc34)CC2)C1` (single isomer, unassigned) [Example 5], the IC50 on CDK7/CyclinH/Mat1 (setting [3]) worked out at 0.0415 µM; at CDK7/CyclinH/Mat1 (setting [4]) it was 0.367 µM; in experiment [1] (4 hours) it was 0.118 µM.
Regarding `[2H]C([2H])=C([2H])C(=O)N1CCO[C@H](CN2CCC(Nc3cc(C(F)(F)F)cn4c(C(C)C)cnc34)CC2)C1` [Example 6, 2,3,3-trideuterio-1-[(2R)-2-[[4-[[3-isopropyl-6-(trifluoromethyl)imidazo[1,2-a]pyridin-8-yl]amino]-1-piperidyl]methyl]morpholin-4-yl]prop-2-en-1-one], the IC50 on CDK7/CyclinH/Mat1 (setting [3]) was 0.00396 µM; at CDK7/CyclinH/Mat1 (setting [4]), 0.0674 µM; in experiment [1] (Homo sapiens, HCT-116, 4 h) it was 0.0159 µM.
As to `C=CC(=O)N1CCO[C@H](CN2CCC(Nc3cc(C(F)(F)F)cn4c(C(C)C)cnc34)CC2)C1` [Example 8, 1-[(2R)-2-[[4-[[3-isopropyl-6-(trifluoromethyl)imidazo[1,2-a]pyridin-8-yl]amino]-1-piperidyl]methyl]morpholin-4-yl]prop-2-en-1-one], the IC50 was 0.00574 µM on CDK7/CyclinH/Mat1 (setting [3]); 0.0656 µM on CDK7/CyclinH/Mat1 (setting [4]); 0.0262 µM in experiment [1] (Homo sapiens, HCT-116, 4 h).
